Measured values from PMC9244909 (ACS Omega, 2022).
“And” between values parts separate entries of the source, which are not always exact repeats. Identical values can stand only once.

What was measured:
[1] = system: SARS-CoV-2 VOC-202012/01 strain; assay type: cell-based
[2] = cited from earlier work

SMILES	100% CPE inhibitory concentration (CPEIC100) [1]	time to maximal effectiveness on the coronavirus ([1]; after starting treatment) [h]	plasma half-life [2] [h]	time of peak plasma concentrations [2] [h]
N#C[C@@]1(c2ccc3c(N)ncnn23)O[C@H](CO)[C@@H](O)[C@H]1O [GS-441524]	17.40 µM and 17.40 ± 1.83 µM			
CCC(CC)COC(=O)[C@H](C)N[P@](=O)(OC[C@H]1O[C@@](C#N)(c2ccc3c(N)ncnn23)[C@H](O)[C@@H]1O)Oc1ccccc1 [remdesivir]	25.17 µM and 25.17 ± 2.51 µM			
O=c1nc[nH]c2c1ncn2[C@H]1CC[C@@H](CO)O1 [DDI, 9-[(2R,5S)-5-(hydroxymethyl)oxolan-2-yl]-3H-purin-6-one]	8.95 µM and 8.95 ± 0.52 µM	12 to 24	≤ 2	0.5 to 1.5
